For the assay, the target named is T1, Human chemokine receptor CXCR4 (Homo sapiens, UniProt P61073).
T1 construct: expressed in transfected cells; host or cells: Chem-1 cells (membranes)
Put plainly: Human CXCR4/125I-SDF-1α binding inhibition assay. The procedure: Non-specific binding was estimated in the presence of 30 nM SDF-1α.

Numbered stars: 1 amine (or outer) side, 2 acyl side, 3 side chain; on linkers, the order of the positions; unused ones are H or OH. Bridge positions count the residues as written; N and C are the ends. Square brackets hold non-standard residues; d marks the D form. Peptide text beside a SMILES is read from it. * marks the point of attachment. 2Nal = N[C@@H](Cc1ccc2ccccc2c1)C(=O)O; oXylylene = c1ccc(C[*:2])c(C[*:1])c1; Lys(iPr) = CC(C)NCCCC[C@H](N)C(=O)O; Bz = O=C(c1ccccc1)*

T1 sequence (P61073 whole entry): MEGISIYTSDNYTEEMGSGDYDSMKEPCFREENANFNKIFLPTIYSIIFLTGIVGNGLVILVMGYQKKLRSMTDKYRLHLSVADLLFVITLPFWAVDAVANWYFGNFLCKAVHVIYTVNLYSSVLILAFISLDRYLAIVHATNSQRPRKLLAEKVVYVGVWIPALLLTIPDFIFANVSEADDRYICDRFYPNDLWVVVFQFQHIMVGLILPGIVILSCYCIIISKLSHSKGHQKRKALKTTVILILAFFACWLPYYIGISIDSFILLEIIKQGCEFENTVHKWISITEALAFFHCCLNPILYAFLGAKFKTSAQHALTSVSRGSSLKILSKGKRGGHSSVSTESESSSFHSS

In turn, `CC(C)NCCCC[C@H](NC(=O)[C@@H]1CSCc2ccccc2CSC[C@H](NC(=O)c2ccccc2)C(=O)N[C@@H](Cc2ccc(O)cc2)C(=O)N[C@@H](CCCCNC(C)C)C(=O)N[C@H](CCCNC(=N)N)C(=O)N[C@@H](Cc2ccc3ccccc3c2)C(=O)NCC(=O)N1)C(=O)NCC(N)=O` [Example 20] (Bz-CY[Lys(iPr)][dR][2Nal]GC[Lys(iPr)]G-NH2; linker 1-7 via oXylylene) returned a half-maximal inhibitory concentration (IC50) of 1.3 nM and a Kb of 0.39 nM.

A word on the IC50: it is the concentration at which inhibition is half-maximal. A higher IC50 goes with weaker potency in that assay.
